Measured values reported in US6448034B1, “Production of variant nisin” (priority 1994, dated 2002).
Values after ≈ are worked out from the molar mass of the structure shown.

Legend:
[1] = system: Lactobacillus helveticus CH-1; experiment: Plate diffusion bioassay of cell-free extracts / culture supernatants; format: cell-based; conditions: for Activity (% of wt): antimicrobial activity in culture supernatants of gene-replaced strains, plate diffusion bioassays; for nisin activity (% of wild type), gene replacement: functional nisA gene incorporated in the chromosome of FI7990 in place of nisA deletion
Experimental: 150 μl samples of cell free extracts from strains: 4, FI5876; 5, FI7990; 6, FI8070; 7, FI8198; 8, FI8199 were loaded into wells bored in MRS agar seeded with the indicator strains Lactobacillus helveticus CH-1. Plates were incubated overnight at 42° C. Standards included on the assay plate are: 1,50; 2,100; 3,200; 9,300; 10,400 U/ml.
Nisin activity in Lactococcal strains was assayed by both deferred and direct means. Plate diffusion bioassays were performed as previously described (Dodd et al (1992) Appl. Environ. Microbiol. 58, 3683-3693. Colonies growing on the surface of a GM17 plate were directly assayed by inverting over chloroform for 12 minutes and overlaying with agar seeded with the nisin sensitive L. lactis strain MG1614. Plates were incubated overnight and zone sizes around colonies compared with those of controls. Nisin immunity was determined by streaking cultures on a series of GM17 agar plates containing an increasing concentration of nisin and assessing the degree of growth at the different nisin levels. Control cultures (FI5876, positive) and MG1614 (negative) were included on each plate.
This corresponds to an increase of approximately 50% of nisin A levels, under the conditions used here (Table 1). This higher level of production was not found in the extracts of FI8199, producing the double mutant nisin A/Dha5A,Dha33A. […] In all cases the yield for a particular nisin variant was higher when using this gene replacement strategy than when the equivalent plasmid-encoded gene was employed in a plasmid complementation system (Table 3, Dodd et al (1992) (1993) supra).

[2] = system: sensitive L. Lactis strain MG1614; experiment: Minimum inhibitory concentration (MIC); format: cell-based; conditions: Table 5
FI7847 [nisA-(fs)] = experiment: Induction by nisin / nisin variants as inducing agent; format: cell-based, L. lactis; parameters: Induction: unit not given here; conditions: for Induction: strain FI7847
Experimental: A particularly preferred embodiment of the third aspect of the invention is wherein the cells are cultured in the presence of nisA nisin or a variant nisin which can induce nisin expression. […] By adding sub-inhibitory concentrations of nisin to the growth medium, during fermentation, higher levels of the variant nisin are produced. Any variants that are less efficient as inducing agents benefit from the inclusion of nisin in the growth medium (ie a nisin induction step in the purification procedure). The amount of induction varies depending on the initial induction capacity of any particular variant (with I30W nisin A production more than doubled as a result of induction). Induction may be routinely included in the method as a means of maximising production levels. Any concerns about contamination with the wild type molecule are minimal as the nisin concentration required for induction is negligible compared to the amount of nisin variant being purified. Conveniently, the nisA nisin is a minimum amount that provides maximal induction of nisin production. This amount can be determined empirically by a person skilled in the art. Suitable nisA nisin concentrations for induction in this embodiment are from 1 nM to 500 nM, preferably 10 nM to 250 nM, more preferably 50 nM to 150 nM, most preferably 100 nM.
In some circumstances it is desirable to add nisA nisin as an inducer.

[3] = system: Lactobacillus helveticus CH-1; conditions: plate diffusion bioassay; plasmid-encoded nisA gene complementing nisA deficiency in host strain FI7332; cited from earlier work
[4] = system: sensitive indicator strains; conditions: work described in WO 93/20213; cited from earlier work

Row | Molecule | Activity (% of wt) [1] | MIC [2] | Induction (FI7847 [nisA-(fs)]; inducing agent at 100 ng ml^−1) | further results
1 | C=C(NC(=O)[C@@H](NC(=O)[C@H](Cc1c[nH]cn1)NC(=O)[C@@H](NC(=O)[C@H](CO)NC(=O)[C@@H]1CS[C@@H](C)[C@H]2NC(=O)[C@H](C)NC(=O)[C@H](NC(=O)[C@H](CCCCN)NC(=O)[C@H](CCSC)NC(=O)[C@H](CC(N)=O)NC(=O)[C@@H]3CS[C@@H](C)[C@@H](NC(=O)[C@H](CCCCN)NC(=O)[C@@H]4CS[C@@H](C)[C@@H](NC(=O)[C@@H]5CSC[C@@H](NC(=O)/C(=C/C)NC(=O)[C@@H](N)[C@@H](C)CC)C(=O)N[C@@H]([C@@H](C)CC)C(=O)NC(=C)C(=O)N[C@@H](CC(C)C)C(=O)N5)C(=O)N5CCC[C@H]5C(=O)NCC(=O)N4)C(=O)NCC(=O)N[C@@H](C)C(=O)N[C@@H](CC(C)C)C(=O)N[C@@H](CCSC)C(=O)NCC(=O)N3)[C@H](C)SC[C@H](NC2=O)C(=O)N[C@@H](CCCCN)C(=O)N1)[C@@H](C)CC)C(C)C)C(=O)N[C@@H](CCCCN)C(=O)O [H27K] | 100 % of wt | 0.13 mg/mL (≈ 38.9 µM) | 86 | 
2 | C=C(NC(=O)[C@@H](NC(=O)[C@H](Cc1c[nH]cn1)NC(=O)[C@H](Cc1c[nH]c2ccccc12)NC(=O)[C@H](CO)NC(=O)[C@@H]1CS[C@@H](C)[C@H]2NC(=O)[C@H](C)NC(=O)[C@H](NC(=O)[C@H](CCCCN)NC(=O)[C@H](CCSC)NC(=O)[C@H](CC(N)=O)NC(=O)[C@@H]3CS[C@@H](C)[C@@H](NC(=O)[C@H](CCCCN)NC(=O)[C@@H]4CS[C@@H](C)[C@@H](NC(=O)[C@@H]5CSC[C@@H](NC(=O)/C(=C/C)NC(=O)[C@@H](N)[C@@H](C)CC)C(=O)N[C@@H]([C@@H](C)CC)C(=O)NC(=C)C(=O)N[C@@H](CC(C)C)C(=O)N5)C(=O)N5CCC[C@H]5C(=O)NCC(=O)N4)C(=O)NCC(=O)N[C@@H](C)C(=O)N[C@@H](CC(C)C)C(=O)N[C@@H](CCSC)C(=O)NCC(=O)N3)[C@H](C)SC[C@H](NC2=O)C(=O)N[C@@H](Cc2c[nH]cn2)C(=O)N1)C(C)C)C(=O)N[C@@H](CCCCN)C(=O)O [I30W] | <1 % of wt | 0.16 mg/mL (≈ 46.7 µM) | 41 | function as inducer of its own biosynthesis (FI7847 [nisA-(fs)]): does not function well as an inducer of its own biosynthesis
3 | C=C(NC(=O)[C@@H](NC(=O)[C@H](Cc1c[nH]cn1)NC(=O)[C@@H](NC(=O)[C@H](CO)NC(=O)[C@@H]1CS[C@@H](C)[C@H]2NC(=O)[C@H](C)NC(=O)[C@H](NC(=O)[C@H](CCCCN)NC(=O)[C@H](CCSC)NC(=O)[C@H](CC(N)=O)NC(=O)[C@@H]3CS[C@@H](C)[C@@H](NC(=O)[C@H](CC(C)C)NC(=O)[C@@H]4CS[C@@H](C)[C@@H](NC(=O)[C@@H]5CSC[C@@H](NC(=O)/C(=C/C)NC(=O)[C@@H](N)[C@@H](C)CC)C(=O)N[C@@H]([C@@H](C)CC)C(=O)NC(=C)C(=O)N[C@@H](CC(C)C)C(=O)N5)C(=O)N5CCC[C@H]5C(=O)NCC(=O)N4)C(=O)NCC(=O)N[C@@H](C)C(=O)N[C@@H](CC(C)C)C(=O)N[C@@H](CCSC)C(=O)NCC(=O)N3)[C@H](C)SC[C@H](NC2=O)C(=O)N[C@@H](Cc2c[nH]cn2)C(=O)N1)[C@@H](C)CC)C(C)C)C(=O)N[C@@H](CCCCN)C(=O)O [K12L] | 10 % of wt | 0.13 mg/mL (≈ 38.9 µM) | 81 | 
4 | C=C(NC(=O)[C@@H](NC(=O)[C@H](Cc1c[nH]cn1)NC(=O)[C@@H](NC(=O)[C@H](CO)NC(=O)[C@@H]1CS[C@@H](C)[C@H]2NC(=O)[C@H](C)NC(=O)[C@H](NC(=O)[C@H](CCCCN)NC(=O)[C@H](CCSC)NC(=O)[C@H](CC(N)=O)NC(=O)[C@@H]3CS[C@@H](C)[C@@H](NC(=O)[C@H](CCCCN)NC(=O)[C@@H]4CS[C@@H](C)[C@@H](NC(=O)[C@@H]5CSC[C@@H](NC(=O)/C(=C/C)NC(=O)[C@@H](N)[C@@H](C)CC)C(=O)N[C@@H]([C@@H](C)CC)C(=O)N[C@@H](C)C(=O)N[C@@H](CC(C)C)C(=O)N5)C(=O)N5CCC[C@H]5C(=O)NCC(=O)N4)C(=O)NCC(=O)N[C@@H](C)C(=O)N[C@@H](CC(C)C)C(=O)N[C@@H](CCSC)C(=O)NCC(=O)N3)[C@H](C)SC[C@H](NC2=O)C(=O)N[C@@H](Cc2c[nH]cn2)C(=O)N1)[C@@H](C)CC)C(C)C)C(=O)N[C@@H](CCCCN)C(=O)O [nisin A (Dha5A)] | 100 % of wt | 0.25 mg/mL (≈ 74.5 µM) | 114 | nisin activity (% of wild type), gene replacement ([1]; plate diffusion bioassay): 100 % of wild type; Induction (FI7847 [nisA-(fs)]; inducing agent at 1 mg ml^−1): 107; nisin activity (% of wild type), complementation [3]: 25 % of wild type; antimicrobial activity against sensitive indicator strains [4]: retained their antimicrobial activity
5 | C=C1NC(=O)[C@H]([C@@H](C)CC)NC(=O)[C@H](NC(=O)/C(=C/C)NC(=O)[C@@H](N)[C@@H](C)CC)CSC[C@@H](C(=O)N[C@H]2C(=O)N3CCC[C@H]3C(=O)NCC(=O)N[C@H](C(=O)N[C@@H](CCCCN)C(=O)N[C@H]3C(=O)NCC(=O)N[C@@H](C)C(=O)N[C@@H](CC(C)C)C(=O)N[C@@H](CCSC)C(=O)NCC(=O)N[C@H](C(=O)N[C@@H](CC(N)=O)C(=O)N[C@@H](CCSC)C(=O)N[C@@H](CCCCN)C(=O)N[C@H]4C(=O)N[C@@H](C)C(=O)N[C@H]5C(=O)N[C@@H](CS[C@H]4C)C(=O)N[C@@H](Cc4c[nH]cn4)C(=O)N[C@H](C(=O)N[C@@H](CO)C(=O)N[C@H](C(=O)N[C@@H](Cc4c[nH]cn4)C(=O)N[C@H](C(=O)N[C@@H](C)C(=O)N[C@@H](CCCCN)C(=O)O)C(C)C)[C@@H](C)CC)CS[C@H]5C)CS[C@H]3C)CS[C@H]2C)NC(=O)[C@H](CC(C)C)NC1=O [nisin A (Dha33A)] | 150 % of wt | 0.25 mg/mL (≈ 74.5 µM) | 17 | increase over nisin A levels ([1]; cell extract from FI8198, plate diffusion bioassay): approximately 50%; zone of inhibition / inhibitory effect compared with parent strain FI5876 ([1]; cell extracts of gene-replaced strains, plate diffusion bioassay): larger than that of the parent strain; nisin activity (% of wild type), gene replacement ([1]; plate diffusion bioassay): 150 % of wild type; Induction (FI7847 [nisA-(fs)]; inducing agent at 1 mg ml^−1): 101; nisin activity (% of wild type), complementation [3]: 10 % of wild type; antimicrobial activity against sensitive indicator strains [4]: retained their antimicrobial activity
6 | H27K, H31K (MSTKDFNLDLVSVSKKDSGASPRITSISLCTPGCKTGALMGCNMKTATCKCSIKVSK; listed as Lactococcus sp.) | 10 % of wt |  |  | 
7 | H27W (MSTKDFNLDLVSVSKKDSGASPRITSISLCTPGCKTGALMGCNMKTATCWCSIHVSK; listed as Lactococcus sp.) | <1 % of wt |  |  | 
8 | H31K (MSTKDFNLDLVSVSKKDSGASPRITSISLCTPGCKTGALMGCNMKTATCHCSIKVSK; listed as Lactococcus sp.) | 25 % of wt |  |  | 
9 | S5A, H27W (MSTKDFNLDLVSVSKKDSGASPRITSIALCTPGCKTGALMGCNMKTATCWCSIHVSK; listed as Lactococcus sp.) | 10 % of wt |  |  | 
10 | ΔM21: variant nisin from nisA M21 deletion (SEQ. ID. No. 41), produced by strain FI8290 (MSTKDFNLDLVSVSKKDSGASPRITSISLCTPGCKTGALMGCNKTATCHCSIHVSK; listed as Lactococcus sp.) | <1 % of wt |  |  | 
